This note sets out measurements from patent publication US8211895B2, “Capped pyrazinoylguanidine sodium channel blockers” (Parion Sciences, Inc., priority 2005, dated 2012).

The test system of series [1] is airway epithelial sodium currents in canine bronchial epithelia (ENaC). As to the kind of experiment: In vitro measure of sodium channel blocking activity (short circuit current, Ussing chambers). In kind it is cell-based. As to conditions: potency in canine bronchial epithelia, reported as fold-enhancement relative to amiloride. On the procedure:
In Vitro Measure of Sodium Channel Blocking Activity and Reversibility One assay used to assess mechanism of action and/or potency of the compounds of the present invention involves the determination of lumenal drug inhibition of airway epithelial sodium currents measured under short circuit current (ISC) using airway epithelial monolayers mounted in Ussing chambers. Cells obtained from freshly excised human, dog, sheep or rodent airways are seeded onto porous 0.4 micron Snapwell™ Inserts (CoStar), cultured at air-liquid interface (ALI) conditions in hormonally defined media, and assayed for sodium transport activity (ISC) while bathed in Krebs Bicarbonate Ringer (KBR) in Using chambers. All test drug additions are to the lumenal bath with half-log dose addition protocols (from 1×10^−11 M to 3×10^−5 M), and the cumulative change in ISC (inhibition) recorded. All drugs are prepared in dimethyl sulfoxide as stock solutions at a concentration of 1×10^−2 M and stored at −20° C. Eight preparations are typically run in parallel; two preparations per run incorporate amiloride and/or benzamil as positive controls. After the maximal concentration ([…]) is administered, the lumenal bath is exchanged three times with fresh drug-free KBR solution, and the resultant ISC measured after each wash for approximately 5 minutes in duration. Reversibility is defined as the percent return to the baseline value for sodium current after the third wash. All data from the voltage clamps are collected via a computer interface and analyzed off-line. Dose-effect relationships for all compounds are considered and analyzed by the Prism 3.0 program. IC50 values, maximal effective concentrations, and reversibility are calculated and compared to amiloride and benzamil as positive controls. […] The results for the compounds of the present invention are reported as fold-enhancement values relative to amiloride.

`NC(=O)CN(CCOc1ccc(CCCCNC(N)=NC(=O)c2nc(Cl)c(N)nc2N)cc1)CC(N)=O` [ALB 28062, 2-{Carbamoylmethyl-[2-(4-{4-[N′-(3,5-diamino-6-chloropyrazine-2-carbonyl)-guanidino]butyl}phenoxy)ethyl]amino}acetamide]: the melting point was 98 to 100 °C (dec.).

For the compound `COC(=O)CC(CC(=O)OC)NCCOc1ccc(CCCCNC(N)=NC(=O)c2nc(Cl)c(N)nc2N)cc1` [ALB 28588, 3-[2-(4-{4-[N′-(3,5-Diamino-6-chloropyrazine-2-carbonyl)guanidino]butyl}phenoxy)ethylamino]pentanedioic acid dimethyl ester], the melting point lay within 84 to 88 °C.

Turning to `NC(=O)CNCCOc1ccc(CCCCNC(N)=NC(=O)c2nc(Cl)c(N)nc2N)cc1` [ALB 28683, 2-[2-(4-{4-[N′-(3,5-Diamino-6-chloropyrazine-2-carbonyl)guanidino]butyl}-phenoxy)ethylamino]acetamide], the melting point was 92 to 94 °C (dec.).

On to `NC(=NC(=O)c1nc(Cl)c(N)nc1N)NCCCCc1ccc(OCCNCC(=O)O)cc1` [ALB 28897, [2-(4-{4-[N′-(3,5-Diamino-6-chloropyrazine-2-carbonyl)guanidino]butyl}-phenoxy)ethylamino]acetic acid], for which the melting point is 110 to 112 °C (dec.).

On to `N=C(NCCCCc1ccc(OCCN(CC(N)=O)CC(N)=O)cc1)NC(=O)c1nc(Cl)c(N)nc1N` [Compound 1], for which the “Fold Amiloride” value in series [1] was found to be 77.

Regarding `N=C(NCCCCc1ccc(OCCN(CC(=O)O)CC(=O)O)cc1)NC(=O)c1nc(Cl)c(N)nc1N` [Compound 2], in series [1], the “Fold Amiloride” value stood at 16.

`N=C(NCCCCc1ccc(OCCNCC(N)=O)cc1)NC(=O)c1nc(Cl)c(N)nc1N` [Compound 3]: in series [1], the “Fold Amiloride” value worked out at 10.

`COC(=O)CC(CC(=O)OC)NCCOc1ccc(CCCCNC(=N)NC(=O)c2nc(Cl)c(N)nc2N)cc1` [Compound 4]: the “Fold Amiloride” value in series [1] is 81.

As a reminder, the melting point is the temperature of the solid-liquid transition.
